Measured values as given in ChEMBL document CHEMBL1154301, “A naturally occurring brominated furanone covalently modifies and inactivates LuxS” (Bioorg Med Chem Lett, 2009).
Active and inactive are the calls of the source. The rule behind the calls is not given here.

Key:
[1] = biological target: T1, S-ribosylhomocysteine lyase (Escherichia coli K-12) (UniProt P45578); experiment: Inhibition of Escherichia coli LuxS using S-ribosyl-homocysteine substrate at pH 7 after 10 mins by fluorimetric assay
T1 sequence (whole entry): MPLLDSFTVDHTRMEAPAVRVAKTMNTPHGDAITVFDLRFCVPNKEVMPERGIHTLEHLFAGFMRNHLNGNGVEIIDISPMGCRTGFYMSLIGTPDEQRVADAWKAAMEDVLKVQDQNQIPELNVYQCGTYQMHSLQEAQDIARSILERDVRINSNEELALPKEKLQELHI

[2] = biological target: T1, S-ribosylhomocysteine lyase (Escherichia coli K-12); experiment: Inhibition of Escherichia coli LuxS using variable levels of S-ribosyl-homocysteine substrate at pH 7 after 10 mins by fluorimetric assay
[3] = biological target: T1, S-ribosylhomocysteine lyase (Escherichia coli K-12); experiment: Inhibition of Escherichia coli LuxS using variable levels of S-ribosyl-homocysteine substrate by UV/Vis absorbance spectroscopy; details: TDE = time-dependent effect
[4] = biological target: T1, S-ribosylhomocysteine lyase (Escherichia coli K-12); experiment: Inhibition of Escherichia coli LuxS assessed as induction of covalent modification by UV/Vis absorbance spectroscopy
[5] = biological target: T1, S-ribosylhomocysteine lyase (Escherichia coli K-12); experiment: Inhibition of Escherichia coli LuxS assessed as formation of enzyme-adduct formation by mass spectrometry
[6] = biological target: T1, S-ribosylhomocysteine lyase (Escherichia coli K-12); experiment: Inhibition of Escherichia coli LuxS assessed as induction of Cys126 alkylation by MALDI-MS method

SMILES	inhibition [1]	inhibition [2]	inhibition [3]	inhibition [4]	inhibition [5]	inhibition [6]
O=C1C=CC(=C(Br)Br)O1	Active					
O=C1C=C/C(=C/Br)O1	Dose-dependent effect					
CCCCC1=C(Br)/C(=C/Br)OC1=O	Dose-dependent effect	Active	tde	Active	Active	Active
CCCCC1=CC(=C(Br)Br)OC1=O	Active					
